Laboratory results from US9132097B2, “Nanoparticles stabilized with nitrophenylboronic acid compositions” (California Institute of Technology, priority 2013, dated 2015).
Read-outs that look alike come from different tables or passages of the source.

How the values were obtained:
[1] = Plasma pharmacokinetics of free CPT in mice (comparison); type: in vivo; conditions: after 8 h, CPT alone at 10 mg/kg, CD2F1 mice
Description: Free CPT injected at 10 mg/kg into CD2F1 mice is shown as comparison. […] (B) Plasma concentration of unconjugated CPT as a function of time.

[2] = system: BT-474 xenograft tumors
Description: Treatments began on day 1. […] All treatments were freshly prepared and given via intravenous tail vein injection. Injections were standardized at 150 μl per 20 g body weight of mice. […] Tumor sizes were recorded three times a week using caliper measurements (length×width2/2) and health of the animals was continuously monitored. Animals were euthanized when tumor volumes exceeded 1000 mm^3. Six weeks after beginning of the treatment, animals were euthanized by CO2 asphyxiation.

[3] = CPT 8 mg/kg i.v. once per week for 3 weeks, Nbegin 8
[4] = Irinotecan 80 mg/kg i.v. once per week for 3 weeks, Nbegin 8

Row | SMILES | Injected dose remaining in circulation [1] [%] | Tumor inhibition compared to control group ([2]; CPT 8 mg/kg i.v. once per week for 3 weeks) | NNTRD (number of non-treatment related death) [2, 3] | NTRD (number of treatment related death) [2, 3] | Nend (number of animals surviving to end of study) [2, 3] | Tumor inhibition compared to control group ([2]; Irinotecan 80 mg/kg i.v. once per week for 3 weeks) | NNTRD (number of non-treatment related death) [2, 4] | NTRD (number of treatment related death) [2, 4] | Nend (number of animals surviving to end of study) [2, 4] | Neuthan (number of animals euthanized due to exceeding tumor size limit of 1000 mm^3) [2, 4] | Nreg to zero (number of animals with tumors regressed to zero at the end of study) [2, 4]
1 | CC[C@@]1(O)C(=O)OCc2c1cc1n(c2=O)Cc2cc3ccccc3nc2-1 [CPT, Camptothecin] | 0.01 | no tumor inhibition | 0 | 4 | 8/0 | – | – | – | – | – | –
2 | CCc1c2c(nc3ccc(OC(=O)N4CCC(N5CCCCC5)CC4)cc13)-c1cc3c(c(=O)n1C2)COC(=O)[C@]3(O)CC [Irinotecan] | – | – | – | – | – | non-significant tumor inhibition | 0 | 1 | 8/7 | 0 | 0
